Consider nine compounds from PubChem BioAssay AID1745844 (Carcinogenic Potency Database (CPDB), 2022).

The term TD50 denotes the 50% point of the dose-response relation for the toxic effect studied.

The series concerns rodent lifetime carcinogenesis bioassay, tumor incidence TD50. In words: chronic cancer bioassays in animals – CPDB, compiled studies (AID 1745844).

Active and inactive are the calls of the source. No rule for the calls is given here.

As for `C=CF`, the TD50 (mouse, strain Charles River CD1, females, inhaled, site: Harderian gland, lesion: adenoma, dosed 67 weeks, study length 74 weeks) is 4010 mg/kg/day; the TD50 (mouse, strain Charles River CD1, females, inhaled, site: liver, lesion: hemangiosarcoma, dosed 67 weeks, study length 74 weeks) is 25.4 mg/kg/day; the TD50 (mouse, strain Charles River CD1, females, inhaled, site: lung, lesion: alveolar/bronchiolar adenoma, dosed 67 weeks, study length 74 weeks) is 54.6 mg/kg/day; the TD50 (mouse, strain Charles River CD1, females, inhaled, site: lung, lesion: several types, types named in the paper, dosed 67 weeks, study length 74 weeks) was 54.6 mg/kg/day; the TD50 (mouse, strain Charles River CD1, females, inhaled, site: mammary gland, lesion: adenocarcinoma, dosed 67 weeks, study length 74 weeks) is 13.6 mg/kg/day; the TD50 (mouse, strain Charles River CD1, females, inhaled, site: mammary gland, lesion: several types, types named in the paper, dosed 67 weeks, study length 74 weeks) was 13.6 mg/kg/day. Further, the TD50 by setting is: (mouse, strain Charles River CD1, males, inhaled, site: Harderian gland, lesion: adenoma, dosed 63 weeks, study length 78 weeks) 1000 mg/kg/day; (mouse, strain Charles River CD1, males, inhaled, site: liver, lesion: hemangiosarcoma, dosed 63 weeks, study length 78 weeks) 19.4 mg/kg/day; (mouse, strain Charles River CD1, males, inhaled, site: liver, lesion: hepatocellular adenoma, dosed 63 weeks, study length 78 weeks) 34.6 mg/kg/day; (mouse, strain Charles River CD1, males, inhaled, site: lung, lesion: alveolar/bronchiolar adenocarcinoma, dosed 63 weeks, study length 78 weeks) 12300 mg/kg/day; (mouse, strain Charles River CD1, males, inhaled, site: lung, lesion: alveolar/bronchiolar adenoma, dosed 63 weeks, study length 78 weeks) 5.78 mg/kg/day; (mouse, strain Charles River CD1, males, inhaled, site: lung, lesion: several types, types named in the paper, dosed 63 weeks, study length 78 weeks) 5.78 mg/kg/day. The TD50 is, setting by setting: (rat, strain Charles River CD (Sprague-Dawley), females, inhaled, site: Zymbal's gland, lesion: squamous-cell carcinoma, sebaceous, dosed 52 weeks, study length 52 weeks) 639 mg/kg/day; (rat, strain Charles River CD (Sprague-Dawley), females, inhaled, site: Zymbal's gland, lesion: squamous-cell carcinoma, sebaceous, dosed 78 weeks, study length 78 weeks) 684 mg/kg/day; (rat, strain Charles River CD (Sprague-Dawley), females, inhaled, site: Zymbal's gland, lesion: squamous-cell carcinoma, sebaceous, dosed 93 weeks, study length 103 weeks) 1470 mg/kg/day; (rat, strain Charles River CD (Sprague-Dawley), females, inhaled, site: liver, lesion: hemangiosarcoma, dosed 93 weeks, study length 103 weeks) 16.6 mg/kg/day; (rat, strain Charles River CD (Sprague-Dawley), females, inhaled, site: liver, lesion: hepatocellular adenoma, dosed 93 weeks, study length 103 weeks) 183 mg/kg/day; (rat, strain Charles River CD (Sprague-Dawley), females, inhaled, site: liver, lesion: hepatocellular carcinoma, dosed 78 weeks, study length 78 weeks) 1440 mg/kg/day. Moreover, the TD50 runs as follows: (rat, strain Charles River CD (Sprague-Dawley), females, inhaled, site: liver, lesion: hepatocellular carcinoma, dosed 93 weeks, study length 103 weeks) 7770 mg/kg/day; (rat, strain Charles River CD (Sprague-Dawley), females, inhaled, site: liver, lesion: several types, types named in the paper, dosed 78 weeks, study length 78 weeks) 7380 mg/kg/day; (rat, strain Charles River CD (Sprague-Dawley), females, inhaled, site: liver, lesion: several types, types named in the paper, dosed 93 weeks, study length 103 weeks) 183 mg/kg/day; (rat, strain Charles River CD (Sprague-Dawley), males, inhaled, site: Zymbal's gland, lesion: squamous-cell carcinoma, sebaceous, dosed 52 weeks, study length 52 weeks) 213 mg/kg/day; (rat, strain Charles River CD (Sprague-Dawley), males, inhaled, site: Zymbal's gland, lesion: squamous-cell carcinoma, sebaceous, dosed 93 weeks, study length 103 weeks) 1090 mg/kg/day; (rat, strain Charles River CD (Sprague-Dawley), males, inhaled, site: liver, lesion: hemangiosarcoma, dosed 93 weeks, study length 103 weeks) 25 mg/kg/day. Moreover, the TD50 (rat, strain Charles River CD (Sprague-Dawley), males, inhaled, site: liver, lesion: hepatocellular adenoma, dosed 93 weeks, study length 103 weeks) was 200 mg/kg/day.
In the case of `Nc1ccc(-c2ccc(F)cc2)cc1`, the TD50 is, setting by setting: (mouse, strain CBA, females, by gavage, site: liver, lesion: hepatoma, dosed 26 weeks, study length 114 weeks) 1.09 mg/kg/day; (mouse, strain CBA, males, by gavage, site: liver, lesion: hepatoma, dosed 26 weeks, study length 104 weeks) 1.19 mg/kg/day; (mouse, strain CBA, males, by gavage, site: liver, lesion: several types, types named in the paper, dosed 26 weeks, study length 104 weeks) 1.19 mg/kg/day.
Consider `CCSCC[C@H](N)C(=O)O`, for which the carcinogen call (rat, strain Wistar, males, in feed, site: liver, lesion: carcinoma, dosed 34 weeks, study length 52 weeks) was “positive”.
With `COc1ccccc1N1CCN(CCCNc2cc(=O)n(C)c(=O)n2C)CC1`, the carcinogen call (rat, strain Slc-Wistar, females, by gavage, site: liver, lesion: one or several types, types not named, dosed 52 weeks, study length 52 weeks) was “negative (inactive)” and the carcinogen call (rat, strain Slc-Wistar, males, by gavage, site: liver, lesion: one or several types, types not named, dosed 52 weeks, study length 52 weeks) is “negative (inactive)”.
`Cn1cc(OCC(O)CNC(C)(C)C)c2ccccc2c1=O` (centres undefined): the carcinogen call was “negative (inactive)” (mouse, strain Charles River CD1, females, by gavage, site: any site (literature study), lesion: several types, types named in the paper, dosed 80 weeks, study length 80 weeks); “negative (inactive)” (mouse, strain Charles River CD1, females, by gavage, site: liver, lesion: one or several types, types not named, dosed 80 weeks, study length 80 weeks); “negative (inactive)” (mouse, strain Charles River CD1, females, by gavage, site: lung, lesion: adenocarcinoma, dosed 80 weeks, study length 80 weeks); “negative (inactive)” (mouse, strain Charles River CD1, males, by gavage, site: liver, lesion: hepatocellular carcinoma, dosed 80 weeks, study length 80 weeks); “negative (inactive)” (rat, strain Charles River CD (Sprague-Dawley), females, by gavage, site: liver, lesion: hepatocellular adenoma, dosed 104 weeks, study length 104 weeks); “negative (inactive)” (rat, strain Charles River CD (Sprague-Dawley), males, by gavage, site: liver, lesion: hepatocellular carcinoma, dosed 104 weeks, study length 104 weeks). The TD50 runs as follows: (mouse, strain Charles River CD1, females, by gavage, site: lung, lesion: adenoma, dosed 80 weeks, study length 80 weeks) 843 mg/kg/day (inactive); (mouse, strain Charles River CD1, males, by gavage, site: any site (literature study), lesion: several types, types named in the paper, dosed 80 weeks, study length 80 weeks) 256 mg/kg/day (inactive); (mouse, strain Charles River CD1, males, by gavage, site: liver, lesion: hepatocellular adenoma, dosed 80 weeks, study length 80 weeks) 131 mg/kg/day (inactive); (mouse, strain Charles River CD1, males, by gavage, site: lung, lesion: adenocarcinoma, dosed 80 weeks, study length 80 weeks) 99.2 mg/kg/day (inactive); (mouse, strain Charles River CD1, males, by gavage, site: lung, lesion: adenoma, dosed 80 weeks, study length 80 weeks) 7200 mg/kg/day (inactive); (rat, strain Charles River CD (Sprague-Dawley), females, by gavage, site: any site (literature study), lesion: several types, types named in the paper, dosed 104 weeks, study length 104 weeks) 40 mg/kg/day (inactive). The TD50 was 128 mg/kg/day (inactive) (rat, strain Charles River CD (Sprague-Dawley), males, by gavage, site: any site (literature study), lesion: several types, types named in the paper, dosed 104 weeks, study length 104 weeks) and 384 mg/kg/day (inactive) (rat, strain Charles River CD (Sprague-Dawley), males, by gavage, site: liver, lesion: hepatocellular adenoma, dosed 104 weeks, study length 104 weeks).
As for `CC`, the carcinogen call (mouse, strain B6C3F1, females, in feed, site: any site (literature study), lesion: several types, types named in the paper, dosed 103 weeks, study length 105 weeks) is “negative (inactive)”; the carcinogen call (mouse, strain B6C3F1, females, in feed, site: liver, lesion: several types, types named in the paper, dosed 96 weeks, study length 106 weeks) is “negative (inactive)”; the carcinogen call (mouse, strain B6C3F1, females, in feed, site: lung, lesion: several types, types named in the paper, dosed 96 weeks, study length 106 weeks) is “negative (inactive)”; the carcinogen call (mouse, strain B6C3F1, males, in feed, site: liver, lesion: several types, types named in the paper, dosed 96 weeks, study length 106 weeks) is “negative (inactive)”; the carcinogen call (mouse, strain B6C3F1, males, in feed, site: lung, lesion: several types, types named in the paper, dosed 96 weeks, study length 106 weeks) was “negative (inactive)”. Further, the TD50 runs as follows: (mouse, strain B6C3F1, females, in feed, site: forestomach, lesion: several types, types named in the paper, dosed 96 weeks, study length 106 weeks) 111000 mg/kg/day (inactive); (mouse, strain B6C3F1, females, in feed, site: liver, lesion: hepatocellular adenoma + hepatocellular carcinoma + neoplastic nodule, dosed 103 weeks, study length 105 weeks) 31100 mg/kg/day; (mouse, strain B6C3F1, females, in feed, site: lung, lesion: alveolar/bronchiolar adenoma + alveolar/bronchiolar carcinoma, dosed 103 weeks, study length 105 weeks) 24700 mg/kg/day; (mouse, strain B6C3F1, males, in feed, site: all sites, lesion: hemangioma, dosed 103 weeks, study length 105 weeks) 80800 mg/kg/day (inactive); (mouse, strain B6C3F1, males, in feed, site: any site (literature study), lesion: several types, types named in the paper, dosed 103 weeks, study length 105 weeks) 46000 mg/kg/day; (mouse, strain B6C3F1, males, in feed, site: forestomach, lesion: squamous-cell papilloma, dosed 96 weeks, study length 106 weeks) 240000 mg/kg/day (inactive). Besides, the TD50 (rat, strain Fischer 344, females, in feed, site: any site (literature study), lesion: several types, types named in the paper, dosed 103 weeks, study length 105 weeks) is 8310 mg/kg/day (inactive); the TD50 (rat, strain Fischer 344, males, in feed, site: any site (literature study), lesion: several types, types named in the paper, dosed 103 weeks, study length 105 weeks) was 7970 mg/kg/day (inactive); the TD50 (rat, strain Fischer 344, males, in feed, site: liver, lesion: hepatocellular adenoma + hepatocellular carcinoma + neoplastic nodule, dosed 103 weeks, study length 105 weeks) was 33500 mg/kg/day.
As to `O=NN1CCCCC1C(=O)O` (centres undefined), the TD50 is, setting by setting: (rat, strain MRC, females, in drinking water, site: any site (literature study), lesion: several types, types named in the paper, dosed 75 weeks, study length 104 weeks) 4.99 mg/kg/day (inactive); (rat, strain MRC, males, in drinking water, site: any site (literature study), lesion: several types, types named in the paper, dosed 75 weeks, study length 104 weeks) 3.82 mg/kg/day (inactive).
As to `CN(N=O)c1ccncc1`, the carcinogen call (rat, strain BD VI, females, by gavage, site: any site (literature study), lesion: benign tumor, dosed 101 weeks, study length 101 weeks) is “negative (inactive)”; the carcinogen call (rat, strain BD VI, females, by gavage, site: any site (literature study), lesion: several types, types named in the paper, dosed 101 weeks, study length 101 weeks) is “negative (inactive)”; the carcinogen call (rat, strain BD VI, females, by gavage, site: liver, lesion: several types, types named in the paper, dosed 101 weeks, study length 101 weeks) is “negative (inactive)”. For the same compound, the TD50 (rat, strain BD VI, females, by gavage, site: any site (literature study), lesion: malignant tumor, dosed 101 weeks, study length 101 weeks) was 26.8 mg/kg/day (inactive).
`CCCCC(CC)CO` (centres undefined): the TD50 was 1680 mg/kg/day (mouse, strain B6C3F1, females, by gavage, site: liver, lesion: hepatocellular carcinoma, dosed 80 weeks, study length 80 weeks) and 1710 mg/kg/day (inactive) (mouse, strain B6C3F1, males, by gavage, site: liver, lesion: several types, types named in the paper, dosed 80 weeks, study length 80 weeks). The carcinogen call is “negative (inactive)” (rat, strain Fischer 344, females, by gavage, site: liver, lesion: hepatocellular carcinoma, dosed 104 weeks, study length 104 weeks) and “negative (inactive)” (rat, strain Fischer 344, males, by gavage, site: liver, lesion: several types, types named in the paper, dosed 104 weeks, study length 104 weeks).
